According to PubChem BioAssay (NCI):
Values joined by “and” are separate entries in the source; they are usually repeats but may differ in a detail not shown here. Identical values can stand only once.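 The compound was tested at five concentrations on cells cultured in 96-well plates, with a 48-hour exposure period. GI50: concentration for 50% inhibition of growth. TGI: concentration producing complete growth inhibition.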

Columns and labels:
Test in all cases: NCI-60 cell line screen, 48 h
[1] = system: MOLT-4 leukemia
[2] = system: TK-10 renal
[3] = system: SNB-19 CNS
[4] = system: SK-MEL-28 melanoma
[5] = system: UACC-62 melanoma
[6] = system: OVCAR-3 ovarian
[7] = system: HOP-92 NSCLC
[8] = system: T-47D breast
[9] = system: DU-145 prostate
[10] = system: SNB-75 CNS

Row | SMILES | TGI [1] [µM] | TGI [2] [µM] | TGI [3] [µM] | TGI [4] [µM] | TGI [5] [µM] | TGI [6] [µM] | TGI [7] [µM] | TGI [8] [µM] | TGI [9] [µM] | TGI [10] [µM] | GI50 [7]
1 | NC(=O)NC(=O)c1cccc(C(=O)NC(N)=O)n1 | > 100 | > 100 | > 100 | > 100 | > 100 | > 100 | > 100 | > 100 | > 100 | – | –
2 | O=C(O)COc1cccc2ccccc(=O)c12 | > 100 | > 100 | > 100 | > 100 | > 100 | > 100 | > 100 | > 100 | > 100 | – | –
3 | CCN(CC)C(=O)N1CN(c2ccccc2)C2(CCN(CCCC3(c4ccc(F)cc4)OCCO3)CC2)C1=O | 34.9 | 38.7 | 89.7 | 26.7 | 34.9 | 31.5 | – | > 100 | 38.3 | 45.3 | –
4 | Nc1nc(=O)n(C2CC(O)C(CO)O2)c2nc(-c3ccc(-c4ccccc4)cc3)cnc12 (centres undefined) | 76 | > 100 | 91.1 | – | 61.1 | – | > 100 | 57.4 | > 100 | 66.8 | –
5 | COC(=O)C1=C(C(=O)OC)C2CCC1CC2=O (centres undefined) | > 100 | > 100 | > 100 | > 100 | > 100 | > 100 | – | – | > 100 | > 100 | –
6 | Cc1cn(C2CC(/[N+]([O-])=N\Nc3ccc([N+](=O)[O-])cc3)C(CO)O2)c(=O)[nH]c1=O (centres undefined) | > 100 | > 100 | > 100 | > 100 | > 100 | > 100 | > 100 | – | > 100 | – | –
7 | CC(C)N=C(NC#N)NS(=O)(=O)c1cnccc1NC1CCCCCCC1 | > 100 | > 100 | > 100 | > 100 | > 100 | > 100 | – | > 100 | > 100 | > 100 | –
8 | O=c1ccc2c(Cl)sc(Cl)c2[nH]1 | > 100 | > 100 | > 100 | > 100 | > 100 | > 100 | – | > 100 | > 100 | > 100 | –
9 | COC(=O)/C=C/[C@H]1[C@H](C)N1S(=O)(=O)c1ccc(C)cc1 (some centres undefined) | > 100 | > 100 | > 100 | > 100 | > 100 | > 100 | – | > 100 | > 100 | – | –
10 | CSc1c(C#N)c(=O)n(N)c2n[nH]c(C)c12 | > 100 | > 100 | > 100 | > 100 | > 100 | – | – | > 100 | > 100 | > 100 | –
11 | O=C(O)Cc1ccc(-n2nnc3c(=O)[nH][nH]c(=O)c32)cc1 | > 100 | > 100 | > 100 | > 100 | – | > 100 | > 100 | – | > 100 | – | –
12 | COc1ccc(-c2nc3ccccc3c(=O)[nH]2)cc1OC | > 100 | – | 79 | – | > 100 | > 100 | – | > 100 | > 100 | 55.6 | –
13 | [B]C(=O)NC(CC(C)C)C(=O)NC1c2ccsc2C(=O)C1O (centres undefined) (tested in a mixture with another compound) | > 100 | > 100 | > 100 | > 100 | > 100 | – | > 100 | > 100 | > 100 | > 100 | 44.6 µM and > 100 µM
14 | CCCCCCCCC[C@@H]1C[C@H](O)[C@H](Cc2ccccc2)N1C(=O)OC(C)(C)C | > 100 | 29.2 | 33.5 | 34.9 | 33.3 | 34.6 | 28.9 | – | – | 38.1 | –
15 | c1ccc2c(CCNC3=NCCO3)cccc2c1 | > 10 | > 10 | > 10 | > 10 | > 10 | > 10 | – | > 10 | > 10 | > 10 | –
16 | CC(C)(C)OC(=O)/C=C/[C@@H](CCC(=O)/C=C/[C@H](/C=C\CCCC(=O)O)NC1(c2ccccc2)c2ccccc2-c2ccccc21)O[Si](C)(C)C(C)(C)C | > 100 | 52 | 41.8 | 69.6 | 29.6 | 32.9 | 16 | 55.6 | 32.6 | – | –
17 | Cc1ccc(S(=O)(=O)N/N=C2/C3CC4CCC2C4C3)cc1 (centres undefined) | – | > 100 | – | > 100 | > 100 | > 100 | > 100 | > 100 | > 100 | > 100 | –
18 | COc1ccc(C(CC(=O)c2ccc(O)cc2)C(C(=O)c2ccc(O)cc2)C(c2ccc(OC)cc2)C2C(=O)NC(=S)NC2=O)cc1 (centres undefined) | > 100 | 53.7 | 43.7 | 48.8 | 36.1 | – | > 100 | – | 33.8 | 87.5 | –
19 | COc1ccc(OC/C(N=Cc2cccnc2)=N/NC(=O)c2ccncc2)cc1 | > 100 | > 100 | > 100 | > 100 | > 100 | > 100 | – | > 100 | > 100 | 85.2 | –
20 | COc1ccc([C@H]2C=C(c3cc(F)c(Cl)cc3Cl)N=c3s/c(=C\c4ccc(-c5ccc(Cl)cc5Cl)o4)c(=O)n32)cc1 | > 100 | > 100 | > 100 | > 100 | > 100 | – | > 100 | > 100 | > 100 | > 100 | –
21 | O=CC1C(=O)Nc2nc3ccccc3n2C1c1ccccc1 (centres undefined) | 5.73 | 71.6 | – | 46.4 | 31.9 | 20.7 | 31.3 | – | 25.3 | 22.3 | –
22 | c1ccc2c[n+](Cc3ccnc4ccccc34)ccc2c1 | > 100 | > 100 | > 100 | > 100 | > 100 | > 100 | > 100 | > 100 | > 100 | – | –
23 | O=C(CN1CCOCC1)c1ccc2c(c1)oc(=O)n2CCN1CCCCC1 | > 100 | > 100 | > 100 | > 100 | > 100 | > 100 | – | – | > 100 | 56.2 | –
